Results as given in patent US11753445B2, “Therapeutic peptides” (COHBAR, INC., priority 2016, dated 2023).
Peptide text beside a SMILES is read from it.

Test system: 3T3-L1 Adipocytes
Test: Free fatty acid levels in cultured mouse 3T3-L1 adipocytes, isoproterenol stimulated (Example 2)
Assay type: cell-based
Conditions: test peptides 25 μM; isoproterenol 1 nM
Outline: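 Release of free fatty acids, read at 540 nm, was stimulated with 1 nM isoproterenol for 3 h in mouse 3T3-L1 adipocytes (12–17 days of differentiation). Cells were pre-exposed to 25 μM peptide for 18–20 h plus 1 h, with peptide kept in during stimulation. Values are background-subtracted and normalised to isoproterenol alone.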

| SMILES | Free Fatty Acid Levels in 3T3-L1 Adipocytes Expressed as a Percent of Isoproterenol Control: Percent of Control Value [%] |
| --- | --- |
| CC[C@H](C)[C@H](NC(=O)[C@H](Cc1ccc(O)cc1)NC(=O)CNC(=O)[C@H](CCSC)NC(=O)[C@H](CCC(=O)O)NC(=O)[C@H](CCC(N)=O)NC(=O)[C@H](Cc1c[nH]c2ccccc12)NC(=O)[C@H](CCCNC(=N)N)NC(=O)[C@H](CCSC)NC(C)=O)C(=O)N[C@@H](Cc1ccccc1)C(=O)N[C@@H](Cc1ccc(O)cc1)C(=O)N1CCC[C@H]1C(=O)N[C@@H](CCCNC(=N)N)C(=O)N[C@@H](CCCCN)C(=O)N[C@@H](CC(C)C)C(=O)N[C@H](C)C(N)=O [compound 167] (HELM PEPTIDE1{[ac].M.R.W.Q.E.M.G.Y.I.F.Y.P.R.K.L.[dA].[am]}$$$$V2.0) | 70.9 |
| CC[C@H](C)[C@H](NC(=O)[C@H](Cc1ccc(O)cc1)NC(=O)CNC(=O)[C@H](CCSC)NC(=O)[C@H](CCC(=O)O)NC(=O)[C@H](CCC(N)=O)NC(=O)[C@H](Cc1c[nH]c2ccccc12)NC(=O)[C@H](CCCNC(=N)N)NC(=O)[C@@H](N)CCSC)C(=O)N[C@@H](Cc1ccccc1)C(=O)N[C@@H](Cc1ccc(O)cc1)C(=O)N1CCC[C@H]1C(=O)N[C@@H](CCCNC(=N)N)C(=O)N[C@@H](CCCCN)C(=O)NC(CC)(CC)C(=O)N[C@@H](CCCNC(=N)N)C(=O)O [compound 198] (HELM PEPTIDE1{M.R.W.Q.E.M.G.Y.I.F.Y.P.R.K.[CCC(CC)(N[*:1])C(=O)[*:2]].R}$$$$V2.0) | 69.2 |
| CC[C@H](C)[C@H](NC(=O)[C@H](Cc1ccc(O)cc1)NC(=O)CNC(=O)[C@H](CCSC)NC(=O)[C@H](CCC(=O)O)NC(=O)[C@H](CCC(N)=O)NC(=O)[C@H](Cc1c[nH]c2ccccc12)NC(=O)[C@H](CCCNC(=N)N)NC(=O)[C@H](CCSC)NC(C)=O)C(=O)N[C@@H](Cc1ccccc1)C(=O)N[C@@H](Cc1ccc(O)cc1)C(=O)N1CCC[C@H]1C(=O)N[C@@H](CCCNC(=N)N)C(=O)N[C@@H](CCCCN)C(=O)NC(CC)(CC)C(=O)N[C@@H](CCCNC(=N)N)C(=O)O [compound 199] (HELM PEPTIDE1{[ac].M.R.W.Q.E.M.G.Y.I.F.Y.P.R.K.[CCC(CC)(N[*:1])C(=O)[*:2]].R}$$$$V2.0) | 48.0 |
| CC[C@H](C)[C@H](NC(=O)[C@H](Cc1ccc(O)cc1)NC(=O)CNC(=O)[C@H](CCSC)NC(=O)[C@H](CCC(=O)O)NC(=O)[C@H](CCC(N)=O)NC(=O)[C@H](Cc1c[nH]c2ccccc12)NC(=O)[C@H](CCCNC(=N)N)NC(=O)[C@@H](N)CCSC)C(=O)N[C@@H](Cc1ccccc1)C(=O)N[C@@H](Cc1ccc(O)cc1)C(=O)N1CCC[C@H]1C(=O)N[C@@H](CCCNC(=N)N)C(=O)N[C@@H](CCCCN)C(=O)NC(CC)(CC)C(=O)N[C@@H](CCCNC(=N)N)C(N)=O [compound 200] (HELM PEPTIDE1{M.R.W.Q.E.M.G.Y.I.F.Y.P.R.K.[CCC(CC)(N[*:1])C(=O)[*:2]].R.[am]}$$$$V2.0) | 80.2 |
| CC[C@H](C)[C@H](NC(=O)[C@H](Cc1ccc(O)cc1)NC(=O)CNC(=O)[C@H](CCSC)NC(=O)[C@H](CCC(=O)O)NC(=O)[C@H](CCC(N)=O)NC(=O)[C@H](Cc1c[nH]c2ccccc12)NC(=O)[C@H](CCCNC(=N)N)NC(=O)[C@H](CCSC)NC(C)=O)C(=O)N[C@@H](Cc1ccccc1)C(=O)N[C@@H](Cc1ccc(O)cc1)C(=O)N1CCC[C@H]1C(=O)N[C@@H](CCCNC(=N)N)C(=O)N[C@@H](CCCCN)C(=O)NC(CC)(CC)C(=O)N[C@@H](CCCNC(=N)N)C(N)=O [compound 201] (HELM PEPTIDE1{[ac].M.R.W.Q.E.M.G.Y.I.F.Y.P.R.K.[CCC(CC)(N[*:1])C(=O)[*:2]].R.[am]}$$$$V2.0) | 92.8 |
